What was measured:
[1] = Single-dose pharmacokinetics in monkeys; settings: male, cynomolgus monkey, 1 mg/kg
Description: The pharmacokinetics of various test compounds were evaluated in male cynomolgus monkeys in a crossover-design. Monkeys were fasted overnight prior to PO dosing and fed 4 h post dose. A group of 1-3 animals (3 to 5 kg) received the compound by IV infusion (over 10 min) via a femoral vein and by oral gavage, with a 1-week washout between treatments. Serial blood samples (˜0.3 mL) were collected from a femoral artery at 0.17 (IV only), 0.25, 0.5, 0.75, 1, 2, 4, 6, 8, and 24 h post dose, and centrifuged at 4° C. (1500-2000×g) to obtain plasma. Samples were stored at −20° C. until analysis by LC/MS/MS.
The pharmacokinetic parameters were obtained by non-compartmental analysis of plasma concentration vs. time data (Kinetica software, Version 4.2, InnaPhase Corporation, Philadelphia, Pa.). The peak concentration (Cmax) and time for Cmax were recorded directly from experimental observations. The area under the curve from time zero to the last sampling time (AUC(0-T)) was calculated using a combination of linear and log trapezoidal summations. The total plasma clearance (CLTp), steady-state volume of distribution (Vss), apparent elimination half-life (T½) and mean residence time (MRT) were estimated after IV administration. Estimations of T½ was made using a minimum of 3 time points with quantifiable concentrations. The absolute oral bioavailability (F) was estimated as the ratio of dose-normalized AUC values following oral and IV doses.

[2] = target: T1, human cardiac sodium channel, SCN5A (Homo sapiens, UniProt Q14524); experiment: Sodium channel patch clamp; type: cell-based; settings: read-out: Na+ channel patch clamp (% Inhib.)
T1 construct: expressed in transfected cells; host or cells: HEK-293
Description: Whole-cell patch-clamp was used to directly measure inward sodium currents in HEK-293 cells expressing the human cardiac sodium channel, SCN5A. The compound was tested at a protein-free aqueous buffer. For determining steady state inhibition, sodium currents were elicited every 5 seconds using the following voltage protocol: cells were held at a potential of −90 mV and stepped to −20 mV for 60 ms. Effects were calculated by measuring inhibition of peak current during the test pulse to −20 mV. Rate-dependence of inhibition was assessed by stimulation at frequencies of 1 Hz and 4 Hz.

T1 sequence (Q14524 whole entry): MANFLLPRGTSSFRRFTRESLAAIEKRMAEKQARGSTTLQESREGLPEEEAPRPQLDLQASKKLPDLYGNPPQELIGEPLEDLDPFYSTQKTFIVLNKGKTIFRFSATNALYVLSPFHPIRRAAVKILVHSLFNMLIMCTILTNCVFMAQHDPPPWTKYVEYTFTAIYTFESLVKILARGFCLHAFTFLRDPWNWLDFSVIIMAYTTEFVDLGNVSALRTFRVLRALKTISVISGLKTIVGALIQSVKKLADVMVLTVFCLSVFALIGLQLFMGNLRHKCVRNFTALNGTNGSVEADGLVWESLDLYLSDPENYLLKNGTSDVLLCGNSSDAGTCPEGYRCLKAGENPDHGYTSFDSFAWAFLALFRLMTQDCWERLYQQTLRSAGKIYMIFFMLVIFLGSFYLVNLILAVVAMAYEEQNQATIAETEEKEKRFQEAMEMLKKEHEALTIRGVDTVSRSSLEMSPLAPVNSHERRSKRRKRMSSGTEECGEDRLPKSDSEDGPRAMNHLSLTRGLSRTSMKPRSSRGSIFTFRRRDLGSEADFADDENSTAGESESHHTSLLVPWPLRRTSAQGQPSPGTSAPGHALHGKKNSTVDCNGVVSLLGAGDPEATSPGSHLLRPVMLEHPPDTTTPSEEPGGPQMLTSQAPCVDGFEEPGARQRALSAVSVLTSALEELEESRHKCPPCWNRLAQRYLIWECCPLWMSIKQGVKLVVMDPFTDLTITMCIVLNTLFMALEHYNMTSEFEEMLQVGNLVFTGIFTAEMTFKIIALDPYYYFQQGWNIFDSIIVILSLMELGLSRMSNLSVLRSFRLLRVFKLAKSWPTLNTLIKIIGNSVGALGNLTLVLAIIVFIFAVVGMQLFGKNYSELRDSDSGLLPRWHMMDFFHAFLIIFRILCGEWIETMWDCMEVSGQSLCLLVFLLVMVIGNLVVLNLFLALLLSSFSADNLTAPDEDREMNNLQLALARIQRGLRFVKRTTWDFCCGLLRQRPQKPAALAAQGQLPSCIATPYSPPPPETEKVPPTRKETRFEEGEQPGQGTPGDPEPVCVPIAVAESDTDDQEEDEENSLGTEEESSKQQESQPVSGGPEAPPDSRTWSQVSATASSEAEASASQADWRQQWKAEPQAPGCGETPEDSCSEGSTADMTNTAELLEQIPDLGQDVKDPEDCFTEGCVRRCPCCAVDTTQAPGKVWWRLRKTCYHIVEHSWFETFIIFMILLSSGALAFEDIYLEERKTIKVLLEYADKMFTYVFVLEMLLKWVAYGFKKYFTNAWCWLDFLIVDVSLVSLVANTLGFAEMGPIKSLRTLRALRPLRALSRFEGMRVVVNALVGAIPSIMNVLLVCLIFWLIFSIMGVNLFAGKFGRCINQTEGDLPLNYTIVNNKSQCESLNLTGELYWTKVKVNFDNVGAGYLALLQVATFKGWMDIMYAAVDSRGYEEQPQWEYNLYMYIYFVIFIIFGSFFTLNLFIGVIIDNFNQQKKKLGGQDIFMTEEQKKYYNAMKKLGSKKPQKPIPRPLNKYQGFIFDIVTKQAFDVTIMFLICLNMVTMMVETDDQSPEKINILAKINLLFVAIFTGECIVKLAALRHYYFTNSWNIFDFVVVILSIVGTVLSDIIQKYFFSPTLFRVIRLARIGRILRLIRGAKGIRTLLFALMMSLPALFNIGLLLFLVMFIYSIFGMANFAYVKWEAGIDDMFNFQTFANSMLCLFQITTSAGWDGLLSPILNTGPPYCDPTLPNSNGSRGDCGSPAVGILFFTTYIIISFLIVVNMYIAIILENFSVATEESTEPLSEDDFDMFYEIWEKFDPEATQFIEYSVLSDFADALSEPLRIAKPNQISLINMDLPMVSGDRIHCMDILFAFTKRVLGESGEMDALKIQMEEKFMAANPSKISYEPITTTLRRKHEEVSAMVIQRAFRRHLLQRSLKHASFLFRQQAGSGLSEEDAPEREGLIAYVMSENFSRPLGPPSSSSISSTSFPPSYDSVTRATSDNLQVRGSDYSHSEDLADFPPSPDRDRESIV

## CC(=O)N[C@@H]1C[C@H](NC(C)(C)C)CC[C@@H]1N1CC[C@H](Nc2ncnc3cc(C(C)(C)C)nn23)C1=O [Example 1, N-((1R,2 S,5R)-5-(tert-Butylamino)-2-((S)-3-(7-tert-butylpyrazolo[1,5-a][1,3,5]triazin-4-ylamino)-2-oxopyrrolidin-1-yl)cyclohexyl)acetamide]
[1]; in vivo
  bioavailability: 63%
[1]; plasma, intravenous
  clearance: 16.4 mL/min/kg
[1]; plasma, oral
  AUC: 1.3 µM·h
[2]; 10,000 nM
  inhibition at 10000 nM: 15 to 20%
[2]; 30,000 nM
  inhibition at 30000 nM: 13 to 16%
